Read-outs that look alike come from different tables or passages of the source.

One series can be described thus: in vitro. Particulars: human.
Series [1] is described as follows: Pharmacokinetic analysis following oral administration to beagle dogs. Type of series: in vivo. Particulars: male, beagle, dog, in vivo, po, 1 mg/kg. How it is done: (§1) Pharmacokinetic analysis was performed on various test compounds following intravenous or oral administration to beagle dogs.
(§2) For pharmacokinetic analysis of intravenously administered compounds, the test compounds were formulated in 5% Ethanol, 55% PEG 300, and 40% water at 0.1 mg/mL for IV infusion. For pharmacokinetic analysis of orally administered compounds, the test compounds were formulated as an aqueous suspension in 0.1% Tween 20, 0.5% HPMC LV 100 in Di Water at 1 mg/kg.
(§3) Each dosing group consisted of 3 male, non-naïve purebred beagle dogs. At dosing, the animals weighed between 10 to 13 kg. The animals were fasted overnight prior to dose administration and up to 4 hr after dosing. For studies of intravenous administration, the test article was administered to the animals by intravenous infusion over 30 min. The rate of infusion was adjusted according to the body weight of each animal to deliver a dose of 0.5 mg/kg. For studies of oral administration, the test article was administered according to the body weight of each animal to deliver a dose of 1 mg/kg.
For pharmacokinetic analysis of orally administered compounds, serial venous blood samples (approximately 0.3 mL each) were taken from each animal at time points of 0, 0.25, 0.50, 1.0, 2.0, 4.0, 6.0, 8.0, 12.0 and 24.0 hours after dosing. Blood samples were collected, prepared and analyzed in a similar way to the intravenous studies described above. Non-compartmental pharmacokinetic analysis was performed on the plasma concentration-time data. The resulting data are shown in the last three columns of Table 4. In Table 4, F (%) refers to oral bioavailability. Cmax refers to the peak plasma concentration of the compound after administration. AUC refers to area under the curve and is a measure of total plasma exposure of the indicated compound.

Series [2] is described as follows: Pharmacokinetic analysis following intravenous administration to beagle dogs. Type of series: in vivo. Particulars: male, dog, 0.5 mg/kg; for MRT / clearance: beagle, in vivo, iv; for Vd: plasma, beagle dogs, IV infusion over 30 min, read-out: Vss. The procedure:
as §1, §2, §3
For pharmacokinetic analysis of intravenously administered compounds, serial venous blood samples (approximately 1 mL each) were taken from each animal at 0, 0.250, 0.483, 0.583, 0.750, 1.00, 1.50, 2.00, 4.00, 8.00, 12.0, and 24.0 hours after dosing. The blood samples were collected into Vacutainer™ tubes containing EDTA-K2 as the anti-coagulant and were immediately placed on wet ice pending centrifugation for plasma. An LC/MS/MS method was used to measure the concentration of the test compound in plasma. An aliquot of 100 μL of each plasma sample was added to a clean 96 well plate, and 400 μL of cold acetonitrile/internal standard solution (ACN)/(ISTD) was added. After protein precipitation, an aliquot of 110 μL of the supernatant was transferred to a clean 96-well plate and diluted with 300 μL of water. An aliquot of 25 μL of the above solution was injected into a TSQ Quantum Ultra LC/MS/MS system utilizing a Hypersil Gold C18 HPLC column (50×3.0 mm, 5 μm; Thermo-Hypersil Part #25105-053030). An Agilent 1200 series binary pump (P/N G1312A Bin Pump) was used for elution and separation, and an HTS Pal autosampler (LEAP Technologies, Carrboro, N.C.) was used for sample injection. A TSQ Quantum Ultra triple quadrupole mass spectrometer was utilized in selective reaction monitoring mode (Thermo Finnigan, San Jose, Calif.). Liquid chromatography was performed using two mobile phases: mobile phase A contained 1% acetonitrile in 2.5 mM ammonium formate aqueous solution with pH of 3.0, and mobile phase B contained 90% acetonitrile in 10 mM ammonium formate with pH of 4.6. Non-compartmental pharmacokinetic analysis was performed on the plasma concentration-time data. The resulting data are shown in the first three columns of Table 4. In Table 4, CL refers to clearance, which characterizes the rate at which drug is removed from plasma. The lower the clearance of a drug is, the longer the elimination half-life is in the body. Vss refers to the steady state volume of distribution and indicates how well a drug is distributed into the tissues. The larger the Vss is, the longer the elimination half-life is in the body. MRT refers to mean residence time, which is a measure of the average time molecules exist in the body.

The target of the next series is PXR (Homo sapiens (Human), UniProt O75469). Nature of the series: Human PXR activation assay (luciferase reporter gene assay, DPX2 cells). Particulars: human. In kind it is cell-based. The procedure:
A stably transformed tumor cell line (DPX2) was plated on 96-well microtiter plates. DPX2 cells harbor the human PXR gene (NR112) and a luciferase reporter gene linked to two promoters identified in the human CYP3A4 gene, namely XREM and PXRE. […] The number of viable cells was determined and the reporter gene activity was assessed. Positive control: […]

The target in a further series is OCT2 (Homo sapiens (Human), UniProt O15244). Description: OCT2 inhibition assay (14C-TEA uptake, OCT2-transfected MDCKII cells). Type of series: cell-based. How it is done:
On assay day, cells were trypsinized and resuspended in Krebs-Henseleit Buffer (KHB), pH 7.4 at […]. Cells were preincubated for 15 min in assay plate before addition of test compound or substrate. Test compounds were serially diluted in DMSO and then spiked (2 μL) into in 0.4 mL KHB buffer containing wild-type or OCT2-transfected cells and incubated for 10 minutes. Assay was initiated with the addition of 0.1 mL of 100 μM ^14C-TEA in KHB buffer (20 μM final concentration after mixing). The concentration of TEA is based on the Km. After 10 minutes of incubation, the assay mixture was quenched with addition of 0.5 mL of ice-cold 1×PBS buffer. Samples were then centrifuged at 1000 rpm for 5 min and supernatants were removed. Wash steps were repeated four times with ice-cold PBS. Finally, the cell pellets were lysed with 0.2N NaOH and let sit at room temperature for at least 30 min to ensure complete lysis. Samples were then counted on liquid scintillation counter and dpm counts were used to perform the following calculations.

Setting [3] is: OCT2 mediated uptake of 14C-TEA (20 μM), MDCKII cells, read-out: IC50.

OCT2, sequence (O15244 whole entry): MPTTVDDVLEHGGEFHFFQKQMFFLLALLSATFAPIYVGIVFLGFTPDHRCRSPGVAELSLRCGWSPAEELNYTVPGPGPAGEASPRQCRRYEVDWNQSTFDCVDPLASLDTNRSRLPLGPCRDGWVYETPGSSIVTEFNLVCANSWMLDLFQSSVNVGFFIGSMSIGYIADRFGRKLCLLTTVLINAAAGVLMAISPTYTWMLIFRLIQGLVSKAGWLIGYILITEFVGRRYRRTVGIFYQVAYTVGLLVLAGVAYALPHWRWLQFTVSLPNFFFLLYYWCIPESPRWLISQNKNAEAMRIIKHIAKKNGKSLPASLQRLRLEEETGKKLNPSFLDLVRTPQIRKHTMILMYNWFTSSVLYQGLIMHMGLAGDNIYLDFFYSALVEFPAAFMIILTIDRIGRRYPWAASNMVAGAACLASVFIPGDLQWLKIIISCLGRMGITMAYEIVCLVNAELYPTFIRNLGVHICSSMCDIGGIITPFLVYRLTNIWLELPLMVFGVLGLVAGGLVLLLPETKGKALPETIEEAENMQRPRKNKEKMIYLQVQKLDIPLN
PXR, sequence (O75469 whole entry): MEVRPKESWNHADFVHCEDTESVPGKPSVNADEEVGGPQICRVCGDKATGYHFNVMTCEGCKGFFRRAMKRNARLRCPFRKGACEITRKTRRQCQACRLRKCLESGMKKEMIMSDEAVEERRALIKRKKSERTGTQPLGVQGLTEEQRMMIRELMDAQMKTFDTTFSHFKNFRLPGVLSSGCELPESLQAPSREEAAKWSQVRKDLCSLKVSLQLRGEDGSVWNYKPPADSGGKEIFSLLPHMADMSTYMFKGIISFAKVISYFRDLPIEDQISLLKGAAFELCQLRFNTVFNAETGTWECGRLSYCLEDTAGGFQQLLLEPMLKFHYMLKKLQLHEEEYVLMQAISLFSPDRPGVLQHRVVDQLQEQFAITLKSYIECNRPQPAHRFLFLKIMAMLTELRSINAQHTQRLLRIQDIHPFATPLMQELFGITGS

As to `O=C(NCc1ccc(F)cc1F)c1cn2c(c(O)c1=O)C(=O)N1[C@H]3CC[C@H](C3)O[C@@H]1C2` [Compound 2, (2R,5S,13aR)-N-(2,4-difluorobenzyl)-8-hydroxy-7,9-dioxo-2,3,4,5,7,9,13,13a-octahydro-2,5-methanopyrido[1′,2′:4,5]pyrazino[2,1-b][1,3]oxazepine-10-carboxamide], in the series “in vitro” (CC50 nM in MT-4), the CC50 at 5 days worked out at 3110 nM. In series [1], the AUC (in general, the area under the concentration-time curve, a measure of exposure) came out at 66.1 µM·h; the highest level (Cmax) was 7.8 µM; the “F (%) aqueous suspension” value is listed as 40.7%. In series [2], the MRT (usually the average time that molecules of a dose stay in the body) was 6.5 h; the clearance (as a rule, a measure of how efficiently the substance is removed, as volume per time) was 0.5 mL/min/kg; the Vd stood at 0.2 L/kg. In addition, at PXR, the maximal response (Emax) (as a rule, the greatest response seen or fitted, relative to the assay's reference) at 24 h, 15 µM amounted to 4.5%. The IC50 (commonly the midpoint of a concentration-inhibition curve) on OCT2 (setting [3]) was determined as 0.24 µM.

In the series “in vitro” (CC50 nM in MT-4), `O=C(NCc1ccc(F)cc1F)c1cn2c(c(O)c1=O)C(=O)N1[C@@H]3CC[C@@H](C3)O[C@H]1C2` [Compound 3, (2S,5R,13aS)-N-(2,4-difluorobenzyl)-8-hydroxy-7,9-dioxo-2,3,4,5,7,9,13,13a-octahydro-2,5-methanopyrido[1′,2′:4,5]pyrazino[2,1-b][1,3]oxazepine-10-carboxamide] displayed a CC50 at 5 days of 38400 nM. Moreover, in series [1], the AUC amounted to 9.2 µM·h, the highest level (Cmax) was 1.2 µM and the “F (%) aqueous suspension” value amounted to 18.7%. In addition, in series [2], the mean residence time (MRT) was found to be 4.9 h, the clearance is 0.783 mL/min/kg and the Vd stood at 0.23 L/kg. Moreover, the maximal effect (Emax) at 24 h, 15 µM on PXR is 7.5%. The IC50 at OCT2 (setting [3]) is 0.25 µM.

`O=C(NCc1c(F)cc(F)cc1F)c1cn2c(c(O)c1=O)C(=O)N1[C@H]3CC[C@H](C3)[C@H]1C2` [Compound 55, (1R,4S,12aS)-7-hydroxy-6,8-dioxo-N-(2,4,6-trifluorobenzyl)-1,2,3,4,6,8,12,12a-octahydro-1,4-methanodipyrido[1,2-a:1′,2′-d]pyrazine-9-carboxamide] displayed a CC50 at 5 days in the series “in vitro” (CC50 nM in MT-4) of 11100 nM. In series [2], the MRT was 4.2 h, the clearance was 0.967 mL/min/kg and the Vd was 0.24 L/kg. At PXR, this compound registered an Emax at 24 h, 15 µM of 24%. The compound also registered a half-inhibitory concentration (IC50) against OCT2 of 0.476 µM.

In the series “in vitro” (CC50 nM in MT-4), `C[C@@H](NC(=O)c1cn2c(c(O)c1=O)C(=O)N1[C@H]3CC[C@H](C3)[C@@H]1C2)c1c(F)cc(F)cc1F` [Compound 77, (1R,4S,12aR)-7-hydroxy-6,8-dioxo-N—((R)-1-(2,4,6-trifluorophenyl)ethyl)-1,2,3,4,6,8,12,12a-octahydro-1,4-methanodipyrido[1,2-a:1′,2′-d]pyrazine-9-carboxamide] displayed a CC50 at 5 days of 10100 nM. In addition, in series [2], the MRT came to 2.2 h, the clearance is 5 mL/min/kg and the Vd is 0.64 L/kg. The Emax at 24 h, 15 µM on PXR was determined as 11%. The half-maximal inhibitory concentration (IC50) against OCT2 turned out to be 3.83 µM.

In the series “in vitro” (CC50 nM in MT-4), `O=C(NCc1c(F)cc(F)cc1F)c1cn2c(c(O)c1=O)C(=O)N1[C@@H]3C[C@@H](C[C@H]3F)[C@@H]1C2` [Compound 82, (1S,3R,4R,12aR)-3-fluoro-7-hydroxy-6,8-dioxo-N-(2,4,6-trifluorobenzyl)-1,2,3,4,6,8,12,12a-octahydro-1,4-methanodipyrido[1,2-a:1′,2′-d]pyrazine-9-carboxamide] returned a CC50 at 5 days of 30400 nM. Further, the Emax at 24 h, 15 µM at PXR is 1%. This compound displayed an IC50 on OCT2 of 10 µM.

Regarding `O=C(NCc1c(F)cc(F)cc1F)c1cn2c(c(O)c1=O)C(=O)N1[C@H](C2)[C@H]2C[C@@H]1C(F)(F)C2` [Compound 83, (1S,4R,12aS)-3,3-difluoro-7-hydroxy-6,8-dioxo-N-(2,4,6-trifluorobenzyl)-1,2,3,4,6,8,12,12a-octahydro-1,4-methanodipyrido[1,2-a:1′,2′-d]pyrazine-9-carboxamide], the CC50 at 5 days in the series “in vitro” (CC50 nM in MT-4) turned out to be 27500 nM. In series [2], the mean residence time MRT was determined as 2.4 h, the clearance is 2.68 mL/min/kg and the Vd is 0.38 L/kg. This compound also displayed an Emax at 24 h, 15 µM at PXR of 1%. Moreover, the IC50 on OCT2 (setting [3]) is 10 µM.

`O=C(NCc1c(F)cc(F)cc1F)c1cn2c(c(O)c1=O)C(=O)N1[C@@H](C2)[C@H]2C[C@@H]1C(F)(F)C2` [Compound 98, (1S,4R,12aR)-3,3-difluoro-7-hydroxy-6,8-dioxo-N-(2,4,6-trifluorobenzyl)-1,2,3,4,6,8,12,12a-octahydro-1,4-methanodipyrido[1,2-a:1′,2′-d]pyrazine-9-carboxamide] yielded a CC50 at 5 days in the series “in vitro” (CC50 nM in MT-4) of 17900 nM. Besides, in series [2], the mean residence time MRT came to 3.3 h, the clearance was 0.783 mL/min/kg and the Vd came out at 0.16 L/kg. This compound came in with an Emax at 24 h, 15 µM at PXR of 0%. For the same compound, the IC50 on OCT2 (setting [3]) turned out to be 3.73 µM.

In the case of `C[C@H]1C[C@@H]2C[C@H]1N1C(=O)c3c(O)c(=O)c(C(=O)NCc4c(F)cc(F)cc4F)cn3C[C@@H]21` [Compound 99, (1R,3S,4R,12aR)-7-hydroxy-3-methyl-6,8-dioxo-N-(2,4,6-trifluorobenzyl)-1,2,3,4,6,8,12,12a-octahydro-1,4-methanodipyrido[1,2-a:1′,2′-d]pyrazine-9-carboxamide], the CC50 at 5 days in the series “in vitro” (CC50 nM in MT-4) was determined as 8480 nM. This compound also returned an Emax at 24 h, 15 µM on PXR of 17%. The compound further yielded an IC50 against OCT2 of 1.51 µM.

For the compound `O=C(NCc1ccc(F)cc1F)c1cn2c(c(O)c1=O)C(=O)N1[C@H]3CC[C@H](CC3)[C@H]1C2` [Compound 100, (1R,4R,12aS)-N-(2,4-difluorobenzyl)-7-hydroxy-6,8-dioxo-1,2,3,4,6,8,12,12a-octahydro-1,4-ethanodipyrido[1,2-a:1′,2′-d]pyrazine-9-carboxamide], the CC50 at 5 days in “in vitro” (MT-4 cells, mock-infected, CC50 nM in MT-4, MT-4 cells, 5 days incubation) worked out at 11600 nM. Further, at PXR (15 μM, relative to maximum fold induction by 10 or 20 μM rifampicin, DPX2 cells, 24 hours, read-out: % Emax at 15 μM), the Emax at 24 h, 15 µM amounted to 45%. In addition, the concentration for half-maximal inhibition (IC50) at OCT2 (setting [3]) came to 0.45 µM.

(Values after patent US9663528B2, “Substituted 1,2,3,4,6,8,12,12a-octahydro-1,4-methanodipyrido[1,2-a:1',2'-d]pyrazines and methods for treating viral infections” (priority 2012, dated 2017).)
